Assay results published in patent publication US6737383B1, “Herbicidal oxadiazolidines” (priority 1999, dated 2004).

Assays:
[1] = system: rice; test: Test B flood test rice; format: in vivo, Oryza sativa
Summary of the method: (§1)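 Flood test on plants grown to the 2-leaf stage; treated plants kept in greenhouse twelve to sixteen days, then visually rated against controls on a 0 (no effect) to 10 (complete control) scale.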

[2] = system: giant foxtail; test: Test B pre/postemergence giant foxtail; format: in vivo, Setaria faberii; settings: for Giant foxtail plant response rating: scale of 0 to 10 where 0 is no effect and 10 is complete control
Summary of the method: (§2)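 Test chemicals in a non-phytotoxic solvent mixture with surfactant were sprayed preemergence onto planted seeds and postemergence onto plants 2 to 18 cm tall (1- to 4-leaf stage). After twelve to sixteen days in a greenhouse, injury was visually rated against untreated controls from 0 (no effect) to 10 (complete control).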

[3] = system: cocklebur; test: Test B pre/postemergence cocklebur; format: in vivo, Xanthium strumarium; settings: for Cocklebur plant response rating: scale of 0 to 10 where 0 is no effect and 10 is complete control
Summary of the method: as §2

[4] = system: soybean; test: Test B pre/postemergence soybean; format: in vivo, Glycine max; settings: for Soybean plant response rating: scale of 0 to 10 where 0 is no effect and 10 is complete control
Summary of the method: as §2

[5] = system: duck salad; test: Test B flood test duck salad; format: in vivo, Heteranthera limosa
Summary of the method: as §1

[6] = system: smallflower flatsedge; test: Test B flood test smallflower flatsedge; format: in vivo, Cyperus difformis
Summary of the method: as §1

[7] = system: morningglory; test: Test B pre/postemergence morningglory; format: in vivo, Ipomoea hederacea; settings: for Morningglory plant response rating: scale of 0 to 10 where 0 is no effect and 10 is complete control
Summary of the method: as §2

[8] = system: purple nutsedge; test: Test B pre/postemergence purple nutsedge; format: in vivo, Cyperus rotundus; settings: for Nutsedge plant response rating: scale of 0 to 10 where 0 is no effect and 10 is complete control
Summary of the method: as §2

[9] = system: pigweed; test: Test B pre/postemergence pigweed; format: in vivo, Amaranthus retroflexus; settings: for Redroot pigweed plant response rating: scale of 0 to 10 where 0 is no effect and 10 is complete control
Summary of the method: as §2

[10] = system: crabgrass; test: Test B pre/postemergence crabgrass; format: in vivo, Digitaria sanguinalis; settings: for Crabgrass plant response rating: scale of 0 to 10 where 0 is no effect and 10 is complete control
Summary of the method: as §2

[11] = system: wild oat; test: Test B pre/postemergence wild oat; format: in vivo, Avena fatua; settings: for Wild oats plant response rating: scale of 0 to 10 where 0 is no effect and 10 is complete control
Summary of the method: as §2

[12] = system: corn; test: Test B pre/postemergence corn; format: in vivo, Zea mays; settings: for Corn plant response rating: scale of 0 to 10 where 0 is no effect and 10 is complete control
Summary of the method: as §2

[13] = system: bedstraw; test: Test B pre/postemergence bedstraw; format: in vivo, Galium aparine; settings: Preemergence; for Bedstraw plant response rating: scale of 0 to 10 where 0 is no effect and 10 is complete control
Summary of the method: as §2

[14] = system: rape; test: Test B pre/postemergence rape; format: in vivo, Brassica napus; settings: for Rape plant response rating: scale of 0 to 10 where 0 is no effect and 10 is complete control
Summary of the method: as §2

[15] = system: velvetleaf; test: Test B pre/postemergence velvetleaf; format: in vivo, Abutilon theophrasti; settings: for Velvetleaf plant response rating: scale of 0 to 10 where 0 is no effect and 10 is complete control
Summary of the method: as §2

[16] = system: wheat; test: Test B pre/postemergence wheat; format: in vivo, Triticum aestivum; settings: for Wheat plant response rating: scale of 0 to 10 where 0 is no effect and 10 is complete control
Summary of the method: as §2

[17] = Postemergence (flood test), Rate 125 g/ha, scale 0 to 10, 0 is no effect, 10 is complete control
[18] = Rate 62 g/ha, Postemergence (flood test species), scale of 0 to 10 where 0 is no effect and 10 is complete control
[19] = Rate 62 g/ha, flood test species, Pre-emergence, visual evaluation after twelve to sixteen days
[20] = Rate 125 g/ha, under heading Pre-emergence, flood test species, visual evaluation after twelve to sixteen days
[21] = Rate 250 g/ha, Pre-emergence, flood-test species, scale 0 to 10, 0 is no effect, 10 is complete control
[22] = Rate 500 g/ha, listed under Postemergence (flood test species), scale 0 to 10, 0 no effect, 10 complete control
[23] = Rate 500 g/ha, Pre-emergence, flood test species, scale 0 to 10 (0 no effect, 10 complete control)
[24] = flood test species, listed under Postemergence, Rate 250 g/ha, scale 0 to 10, 0 is no effect, 10 is complete control
[25] = Postemergence, Rate 125 g/ha, scale 0 to 10, 0 is no effect, 10 is complete control
[26] = Postemergence, Rate 250 g/ha, scale 0 to 10, 0 is no effect, 10 is complete control
[27] = Preemergence, Rate 62 g/ha, scale 0 to 10 (0 no effect, 10 complete control)
[28] = Rate 500 g/ha, Postemergence, scale 0 to 10, 0 no effect, 10 complete control

CC1CC1n1c(=O)on(C(=O)N(c2ccc(F)cc2F)C(C)C)c1=O (stereo not drawn) [Compound 372]
10: Plant response rating, Giant foxtail [2, 27] | Giant foxtail plant response rating (0 to 10 scale) ([2]; Preemergence, Rate 125 g/ha) | Giant foxtail plant response rating ([2]; Preemergence, Rate 250 g/ha) | Giant foxtail plant response rating ([2]; Preemergence, Rate 500 g/ha) | Plant response rating, Morningglory [7, 28] | Nutsedge plant response rating ([8]; Preemergence, Rate 500 g/ha) | Redroot pigweed plant response rating (0 to 10 scale) ([9]; Preemergence, Rate 125 g/ha) | Redroot pigweed plant response rating ([9]; Preemergence, Rate 250 g/ha) | Redroot pigweed plant response rating ([9]; Preemergence, Rate 500 g/ha) | Crabgrass plant response rating ([10]; Preemergence, Rate 250 g/ha) | Crabgrass plant response rating ([10]; Preemergence, Rate 500 g/ha) | Wild oats plant response rating ([11]; Preemergence, Rate 500 g/ha) | Bedstraw plant response rating ([13]; Rate 250 g/ha) | Bedstraw plant response rating ([13]; Rate 500 g/ha) | Rape plant response rating ([14]; Preemergence, Rate 250 g/ha) | Rape plant response rating ([14]; Preemergence, Rate 500 g/ha)
9: Plant response rating, Giant foxtail [2, 25] | Plant response rating, Giant foxtail [2, 26] | Plant response rating, Giant foxtail [2, 28] | Plant response rating, Redroot pigweed [9, 28] | Crabgrass plant response rating (0 to 10 scale) ([10]; Preemergence, Rate 125 g/ha) | Plant response rating, Crabgrass [10, 28] | Wild oats plant response rating ([11]; Preemergence, Rate 250 g/ha) | Corn plant response rating ([12]; Preemergence, Rate 250 g/ha) | Corn plant response rating ([12]; Preemergence, Rate 500 g/ha)
7: Plant response rating, Morningglory [7, 25] | Plant response rating, Morningglory [7, 26] | Wild oats plant response rating (0 to 10 scale) ([11]; Preemergence, Rate 125 g/ha) | Velvetleaf plant response rating ([15]; Preemergence, Rate 500 g/ha)
4: Giant foxtail plant response rating ([2]; Rate 62 g/ha, Postemergence) | Plant response rating, Wild oats [11, 25] | Plant response rating, Wild oats [11, 27]
0: Plant response rating, Rice [1, 17] | Rice plant response rating [1, 18] | Plant response rating, Rice (0 to 10 scale, 0 is no effect, 10 is complete control) [1, 19] | Rice plant response rating (0 to 10 scale, 0 is no effect, 10 is complete control) [1, 20] | Rice plant response rating [1, 21] | Rice plant response rating [1, 23] | Plant response rating, Cocklebur [3, 25] | Plant response rating, Cocklebur [3, 26] | Plant response rating, Cocklebur [3, 27] | Cocklebur plant response rating (0 to 10 scale) ([3]; Preemergence, Rate 125 g/ha) | Cocklebur plant response rating ([3]; Rate 62 g/ha, Postemergence) | Plant response rating, Soybean [4, 27] | Soybean plant response rating (0 to 10 scale) ([4]; Preemergence, Rate 125 g/ha) | Soybean plant response rating ([4]; Preemergence, Rate 250 g/ha) | Plant response rating, Ducksalad (0 to 10 scale, 0 is no effect, 10 is complete control) [5, 19] | Ducksalad plant response rating (0 to 10 scale, 0 is no effect, 10 is complete control) [5, 20] | Ducksalad plant response rating [5, 21] | Ducksalad plant response rating [5, 23] | Plant response rating, S. Flatsedge (0 to 10 scale, 0 is no effect, 10 is complete control) [6, 19] | S. Flatsedge plant response rating (0 to 10 scale, 0 is no effect, 10 is complete control) [6, 20] | S. Flatsedge plant response rating [6, 21] | S. Flatsedge plant response rating [6, 23] | Plant response rating, Morningglory [7, 27] | Morningglory plant response rating (0 to 10 scale) ([7]; Preemergence, Rate 125 g/ha) | Plant response rating, Nutsedge [8, 25] | Plant response rating, Nutsedge [8, 26] | Plant response rating, Nutsedge [8, 27] | Nutsedge plant response rating (0 to 10 scale) ([8]; Preemergence, Rate 125 g/ha) | Nutsedge plant response rating ([8]; Preemergence, Rate 250 g/ha) | Nutsedge plant response rating ([8]; Rate 62 g/ha, Postemergence) | Plant response rating, Nutsedge [8, 28] | Plant response rating, Corn [12, 25] | Plant response rating, Corn [12, 26] | Corn plant response rating ([12]; Rate 62 g/ha, Postemergence) | Plant response rating, Bedstraw ([13]; Rate 62 g/ha, scale 0 to 10 (0 no effect, 10 complete control)) | Plant response rating, Velvetleaf [15, 25] | Velvetleaf plant response rating ([15]; Rate 62 g/ha, Postemergence) | Plant response rating, Wheat [16, 25] | Plant response rating, Wheat [16, 26] | Plant response rating, Wheat [16, 27] | Wheat plant response rating (0 to 10 scale) ([16]; Preemergence, Rate 125 g/ha) | Wheat plant response rating ([16]; Preemergence, Rate 250 g/ha) | Wheat plant response rating ([16]; Rate 62 g/ha, Postemergence)
2: Plant response rating, Rice [1, 22] | Plant response rating, Rice [1, 24] | Cocklebur plant response rating ([3]; Preemergence, Rate 250 g/ha) | Cocklebur plant response rating ([3]; Preemergence, Rate 500 g/ha) | Plant response rating, Soybean [4, 26] | Soybean plant response rating ([4]; Preemergence, Rate 500 g/ha) | Plant response rating, S. Flatsedge [6, 17] | S. Flatsedge plant response rating [6, 18] | Morningglory plant response rating ([7]; Preemergence, Rate 250 g/ha) | Redroot pigweed plant response rating ([9]; Rate 62 g/ha, Postemergence) | Plant response rating, Crabgrass [10, 25] | Crabgrass plant response rating ([10]; Rate 62 g/ha, Postemergence) | Wild oats plant response rating ([11]; Rate 62 g/ha, Postemergence) | Plant response rating, Corn [12, 27] | Corn plant response rating (0 to 10 scale) ([12]; Preemergence, Rate 125 g/ha) | Bedstraw plant response rating (0 to 10 scale) ([13]; Rate 125 g/ha) | Rape plant response rating ([14]; Rate 62 g/ha, Postemergence) | Plant response rating, Velvetleaf [15, 26] | Plant response rating, Velvetleaf [15, 28] | Plant response rating, Wheat [16, 28]
6: Plant response rating, Ducksalad [5, 17] | Plant response rating, Ducksalad [5, 22] | Plant response rating, Ducksalad [5, 24] | Plant response rating, Redroot pigweed [9, 26] | Plant response rating, Redroot pigweed [9, 27] | Velvetleaf plant response rating ([15]; Preemergence, Rate 250 g/ha) | Wheat plant response rating ([16]; Preemergence, Rate 500 g/ha)
5: Morningglory plant response rating ([7]; Rate 62 g/ha, Postemergence) | Plant response rating, Wild oats [11, 26] | Plant response rating, Rape [14, 27] | Rape plant response rating (0 to 10 scale) ([14]; Preemergence, Rate 125 g/ha) | Plant response rating, Rape [14, 28] | Velvetleaf plant response rating (0 to 10 scale) ([15]; Preemergence, Rate 125 g/ha)
8: Plant response rating, S. Flatsedge [6, 22] | Plant response rating, S. Flatsedge [6, 24] | Plant response rating, Crabgrass [10, 26] | Plant response rating, Crabgrass [10, 27] | Plant response rating, Wild oats [11, 28]
3: Plant response rating, Cocklebur [3, 28] | Plant response rating, Soybean [4, 28] | Ducksalad plant response rating [5, 18] | Morningglory plant response rating ([7]; Preemergence, Rate 500 g/ha) | Plant response rating, Redroot pigweed [9, 25] | Plant response rating, Corn [12, 28] | Plant response rating, Rape [14, 26] | Plant response rating, Velvetleaf [15, 27]
1: Plant response rating, Soybean [4, 25] | Soybean plant response rating ([4]; Rate 62 g/ha, Postemergence)
